US12194039B2, “Methods of treating heart failure by administering omecamtiv mecarbil” (Cytokinetics, Inc., priority 2020, dated 2025)
Like-named read-outs stand apart in the source and are kept apart here.

System: patients with HFrEF by ejection fraction quartile
Format: in vivo, human
Parameters: Change from baseline in KCCQ Total Symptom Score, least square mean / KCCQ Total Symptom Score Inpatient, Treatment Difference, least squares mean / KCCQ Total Symptom Score Outpatient, Treatment Difference, least squares mean / KCCQ Total Symptom Score, Treatment Difference, least squares mean: scale not given here
Details: for Troponin I (Ratio) / Troponin I, Treatment Difference (95% CI) / Creatinine, Treatment Difference / Heart rate, Treatment Difference / KCCQ Total Symptom Score, Treatment Difference, least squares mean / NT-proBNP (Ratio) / Potassium, Treatment Difference / Systolic BP, Treatment Difference / KCCQ Total Symptom Score Inpatient, Treatment Difference, least squares mean / KCCQ Total Symptom Score Outpatient, Treatment Difference, least squares mean: baseline to Week 24; for Change from baseline in KCCQ Total Symptom Score, least square mean: Week 24
Experimental: Continuous variables were summarized via means and standard deviations or medians and interquartile ranges, as appropriate. Categorical variables are summarized with counts and percentages. Tests of trend across categories were conducted via linear regression, Cuzick's non-parametric trend test, and Chi-squared tests of trend, respectively. Treatment effects on continuous outcomes were assessed via linear regression models adjusted for the corresponding baseline value of the parameter of interest. Survival analyses were conducted using Poisson regression models to estimate incidence rates, rate differences, and rate ratios and Cox proportional hazards models to estimate hazard ratios. […] To allow for potentially non-linear associations between ejection fraction and time-to-event outcomes, restricted cubic splines were utilized in the Poisson regression models with 3 knots. All analyses were conducted using STATA 16 (College Station, Tex.). P-values <0.05 were considered statistically significant. Due to the exploratory nature of these analyses, no adjustments were made for multiple comparisons.
Within each randomization setting subgroup least squares mean is from the mixed model which includes baseline total symptom score value, region, baseline eGFR, scheduled visit, treatment group and interaction of treatment with scheduled visit as covariates. Influence of Ejection Fraction on the Treatment Effect of Omecamtiv Mecarbil

Compound: COC(=O)N1CCN(Cc2cccc(NC(=O)Nc3ccc(C)nc3)c2F)CC1 [omecamtiv mecarbil]
- Troponin I (Ratio) (EF 29-32%, vs placebo): 1.27
- Troponin I, Treatment Difference (95% CI) (EF 29-32%, vs placebo): 4 (3, 5) ng/L
- Adjudicated First Major Cardiac Ischemic Events, % (EF 33%, OM group): 6.5%
- Adjudicated First Stroke, % (EF 33%, OM group): 1.8%
- Adverse Event: Ventricular Tachyarrhythmia, % (EF 33%, OM group): 6.4%
- Any treatment Emergent Serious Adverse Events, % (EF 33%, OM group): (55.5%)
- Positively Adjudicated Myocardial Infarction, % (EF 33%, OM group): 3.8%
- Serious Adverse Event: Ventricular Arrhythmia Requiring Treatment, % (EF 33%, OM group): 2.5%
- Adjudicated First Major Cardiac Ischemic Events, Relative Risk (EF 33%, OM vs placebo): 0.99
- Adjudicated First Stroke, Relative Risk (EF 33%, OM vs placebo): 0.77
- Adverse Event: Ventricular Tachyarrhythmia, Relative Risk (EF 33%, OM vs placebo): 0.88
- Any treatment Emergent Serious Adverse Events, Relative Risk (EF 33%, OM vs placebo): 1.02
- Positively Adjudicated Myocardial Infarction, Relative Risk (EF 33%, OM vs placebo): 1.02
- Serious Adverse Event: Ventricular Arrhythmia Requiring Treatment, Relative Risk (EF 33%, OM vs placebo): 1.11
- 1st HF Hospitalization (%) (EF ≤22%, OM group): (30%)
- 1st HF Hospitalization Rate (EF ≤22%, OM group): 20.9 per 100 patient years
- 1st HF Hospitalization n/N (EF ≤22%, OM group): 340/1127
- First HF Event (%) (EF ≤22%, OM group): (31%)
- First HF Event Rate (EF ≤22%, OM group): 21.7 per 100 patient years
- First HF Event n/N (EF ≤22%, OM group): 351/1127
- Primary Outcome (%) (EF ≤22%, OM group): (41%)
- Primary Outcome Rate (EF ≤22%, OM group): 28.3 per 100 patient years
- Primary Outcome n/N (EF ≤22%, OM group): 457/1127
- Total HF Events, Events (EF ≤22%, OM group): 719
- Total HF Events, Rate (EF ≤22%, OM group): 37.1 per 100 pt-yrs
- Total HF Hospitalizations, Events (EF ≤22%, OM group): 679
- Total HF Hospitalizations, Rate (EF ≤22%, OM group): 35.1 per 100 pt-yrs
- 1st HF Hospitalization ARR (EF ≤22%, OM vs placebo): 6.1 per 100 patient years
- 1st HF Hospitalization HR (95% CI) (EF ≤22%, OM vs placebo): 0.82 (0.71, 0.94)
- First HF Event ARR (EF ≤22%, OM vs placebo): 6.6 per 100 patient years
- First HF Event HR (95% CI) (EF ≤22%, OM vs placebo): 0.81 (0.70, 0.93)
- Primary Outcome ARR (EF ≤22%, OM vs placebo): 7.4 per 100 patient years
- Primary Outcome HR (95% CI) (EF ≤22%, OM vs placebo): 0.83 (0.73, 0.95)
- Total HF Events, ARR (EF ≤22%, OM vs placebo): 11.3 per 100 pt-yrs
- Total HF Events, Ratio (95% CI) (EF ≤22%, OM vs placebo): 0.83 (0.70, 1.01)
- Total HF Hospitalizations, ARR (EF ≤22%, OM vs placebo): 9.9 per 100 pt-yrs
- Total HF Hospitalizations, Ratio (95% CI) (EF ≤22%, OM vs placebo): 0.84 (0.70, 1.01)
- Creatinine, Treatment Difference (EF ≤22%, vs placebo): -0.01 mg/dL
- Heart rate, Treatment Difference (EF ≤22%, vs placebo): −1.6 bpm
- KCCQ Total Symptom Score, Treatment Difference, least squares mean (EF ≤22%, vs placebo): +1.6
- NT-proBNP (Ratio) (EF ≤22%, vs placebo): 0.78
- Potassium, Treatment Difference (EF ≤22%, vs placebo): 0.01 mmol/L
- Systolic BP, Treatment Difference (EF ≤22%, vs placebo): 0.9 mmHg
- Troponin I (Ratio) (EF ≤22%, vs placebo): 1.19
- Troponin I, Treatment Difference (95% CI) (EF ≤22%, vs placebo): 5 (4, 6) ng/L
- 1st HF Hospitalization (%) (EF ≥33%, OM group): 26%
- 1st HF Hospitalization Rate (EF ≥33%, OM group): 15.5 per 100 patient years
- 1st HF Hospitalization n/N (EF ≥33%, OM group): 228/892
- All-cause Death (%) (EF ≥33%, OM group): 22%
- All-cause Death Rate (EF ≥33%, OM group): 11.8 per 100 patient years
- All-cause Death n/N (EF ≥33%, OM group): 200/892
- First HF Event (%) (EF ≥33%, OM group): 26%
- First HF Event Rate (EF ≥33%, OM group): 16.2 per 100 patient years
- First HF Event n/N (EF ≥33%, OM group): 236/892
- Primary Outcome (%) (EF ≥33%, OM group): 33%
- Primary Outcome Rate (EF ≥33%, OM group): 20.5 per 100 patient years
- Primary Outcome n/N (EF ≥33%, OM group): 298/892
- Total HF Events, Events (EF ≥33%, OM group): 483
- Total HF Events, Rate (EF ≥33%, OM group): 28.5 per 100 pt-yrs
- Total HF Hospitalizations, Events (EF ≥33%, OM group): 449
- Total HF Hospitalizations, Rate (EF ≥33%, OM group): 26.5 per 100 pt-yrs
- 1st HF Hospitalization ARR (EF ≥33%, OM vs placebo): −1.2 per 100 patient years
- 1st HF Hospitalization HR (95% CI) (EF ≥33%, OM vs placebo): 1.03 (0.85, 1.24)
- All-cause Death ARR (EF ≥33%, OM vs placebo): −0.1 per 100 patient years
- All-cause Death HR (95% CI) (EF ≥33%, OM vs placebo): 0.98 (0.80, 1.20)
- First HF Event ARR (EF ≥33%, OM vs placebo): −1.3 per 100 patient years
- First HF Event HR (95% CI) (EF ≥33%, OM vs placebo): 1.04 (0.86, 1.25)
- Primary Outcome ARR (EF ≥33%, OM vs placebo): −0.4 per 100 patient years
- Primary Outcome HR (95% CI) (EF ≥33%, OM vs placebo): 0.99 (0.84, 1.16)
- Total HF Events, ARR (EF ≥33%, OM vs placebo): −4.7 per 100 pt-yrs
- Total HF Events, Ratio (95% CI) (EF ≥33%, OM vs placebo): 1.13 (0.90, 1.43)
- Total HF Hospitalizations, ARR (EF ≥33%, OM vs placebo): −3.6 per 100 pt-yrs
- Total HF Hospitalizations, Ratio (95% CI) (EF ≥33%, OM vs placebo): 1.12 (0.89, 1.43)
- Creatinine, Treatment Difference (EF ≥33%, vs placebo): 0.02 mg/dL
- Heart rate, Treatment Difference (EF ≥33%, vs placebo): −1.1 bpm
- KCCQ Total Symptom Score, Treatment Difference, least squares mean (EF ≥33%, vs placebo): −1.0
- NT-proBNP (Ratio) (EF ≥33%, vs placebo): 0.97
- Potassium, Treatment Difference (EF ≥33%, vs placebo): 0.02 mmol/L
- Systolic BP, Treatment Difference (EF ≥33%, vs placebo): −1.2 mmHg
- Troponin I (Ratio) (EF ≥33%, vs placebo): 1.27
- Troponin I, Treatment Difference (95% CI) (EF ≥33%, vs placebo): 3 (2, 4) ng/L
- Change from baseline in KCCQ Total Symptom Score, least square mean (Inpatient, EF 23-28%): 21.51
- KCCQ Total Symptom Score Inpatient, Treatment Difference, least squares mean (Inpatient, EF 23-28%, vs placebo): +0.2
- Change from baseline in KCCQ Total Symptom Score, least square mean (Inpatient, EF 29-32%): 22.34
- KCCQ Total Symptom Score Inpatient, Treatment Difference, least squares mean (Inpatient, EF 29-32%, vs placebo): +4.8
- Change from baseline in KCCQ Total Symptom Score, least square mean (Inpatient, EF ≤22%): 27.70
- KCCQ Total Symptom Score Inpatient, Treatment Difference, least squares mean (Inpatient, EF ≤22%, vs placebo): +4.9
- Change from baseline in KCCQ Total Symptom Score, least square mean (Inpatient, EF ≥33%): 22.09
- KCCQ Total Symptom Score Inpatient, Treatment Difference, least squares mean (Inpatient, EF ≥33%, vs placebo): −0.0
- Change from baseline in KCCQ Total Symptom Score, least square mean (Outpatient, EF 23-28%): 5.61
- KCCQ Total Symptom Score Outpatient, Treatment Difference, least squares mean (Outpatient, EF 23-28%, vs placebo): −0.6
- Change from baseline in KCCQ Total Symptom Score, least square mean (Outpatient, EF 29-32%): 5.30
- KCCQ Total Symptom Score Outpatient, Treatment Difference, least squares mean (Outpatient, EF 29-32%, vs placebo): −0.8
- Change from baseline in KCCQ Total Symptom Score, least square mean (Outpatient, EF ≤22%): 7.08
- KCCQ Total Symptom Score Outpatient, Treatment Difference, least squares mean (Outpatient, EF ≤22%, vs placebo): +0.7
- Change from baseline in KCCQ Total Symptom Score, least square mean (Outpatient, EF ≥33%): 5.18
- KCCQ Total Symptom Score Outpatient, Treatment Difference, least squares mean (Outpatient, EF ≥33%, vs placebo): −1.5
- Increase in troponin I, median (across the EF quartiles, limit of detection 6 ng/L, upper reference limit 40 ng/L): 3 to 5 ng/L
- Incidence of adverse events, omecamtiv mecarbil vs placebo (by EF quartile, result in words): no significant differences
- Effect on symptoms as assessed by the KCCQ-TSS as a function of EF (inpatient or outpatient settings, result in words): no consistent beneficial effect
- Absolute risk reduction, primary composite endpoint (lowest ejection fraction quartile): 7.4 events per 100 patient-years
- Relative risk reduction, primary composite endpoint (lowest ejection fraction quartile (EF ≤22%)): 17%
- Number-needed-to-treat to prevent an event (over 3 years, lowest ejection fraction quartile): 11.8
- Effect on cardiovascular death (overall population and as a function of baseline ejection fraction, result in words): no overall effect
- Primary endpoint, hazard ratio (patients with EF ≤28%, vs placebo): 0.84
- Primary endpoint, hazard ratio (patients with EF>28%, vs placebo): 1.04
- Reduction in time-to-first heart failure event or cardiovascular death (primary endpoint) (patients with ejection fraction ≤28% (below the median)): 16%
- Effect on all-cause mortality (result in words): no effect
- Relative risk reduction, primary composite endpoint (second lowest ejection fraction quartile (EF 23-28%)): 15%
- Incidence of adjudicated stroke (vs placebo, result in words): apparent reduction
- Change of NT-proBNP (week 24, highest EF quartile): 3%
- Reduction of NT-proBNP (week 24, lowest EF quartile (≤22%)): 22%
